# Experimental data taken from ChEMBL document CHEMBL1130701, “Dual antagonists of platelet activating factor and histamine. 3. Synthesis, biological activity and conformational implications of substituted N-acyl-bis-arylcycloheptapiperazines” (Bioorg Med Chem Lett, 1998).
# Biological target: Histamine H1 receptor (Rattus norvegicus, UniProt P31390)
# Experiment: Binding affinity against Histamine H1 receptor using receptor binding assay in rat brain membranes
# Assay type: cell membranes
# Settings: not given
# Histamine H1 receptor, sequence (P31390 whole entry): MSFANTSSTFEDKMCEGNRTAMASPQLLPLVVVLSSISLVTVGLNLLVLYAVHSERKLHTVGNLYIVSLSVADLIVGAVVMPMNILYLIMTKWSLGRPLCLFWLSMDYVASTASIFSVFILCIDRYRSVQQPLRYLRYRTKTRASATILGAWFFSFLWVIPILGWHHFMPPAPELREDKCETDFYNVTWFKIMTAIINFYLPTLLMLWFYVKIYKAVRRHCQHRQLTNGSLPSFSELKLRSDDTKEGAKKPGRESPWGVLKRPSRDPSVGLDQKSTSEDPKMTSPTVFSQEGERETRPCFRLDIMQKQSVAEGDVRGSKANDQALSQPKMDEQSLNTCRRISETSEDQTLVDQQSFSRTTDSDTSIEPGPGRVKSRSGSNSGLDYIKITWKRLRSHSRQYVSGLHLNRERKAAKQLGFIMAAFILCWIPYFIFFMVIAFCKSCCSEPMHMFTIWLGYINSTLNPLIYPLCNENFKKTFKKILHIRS
row,Ki [µM],Compound
1,3.6,CCCC(=O)N1CCN(C2c3ccc(Cl)cc3CCc3cccnc32)CC1 (stereo not given)
2,0.0064,Clc1ccc2c(c1)CCc1cccnc1C2N1CCNCC1 (stereo not given)
3,0.97,CC(=O)N1CCCN(C2c3ccc(Cl)cc3CCc3cccnc32)CC1 (stereo not given)
4,0.0065,CN1CCN(C2c3ccc(Cl)cc3CCc3cccnc32)CC1 (stereo not given)
5,3.6,CC(=O)N1CCN([C@@H]2c3ccc(Cl)cc3CCc3cccnc32)CC1
6,> 10,CC(=O)N1CCN([C@H]2c3ccc(Cl)cc3CCc3cccnc32)CC1
7,0.29,O=CN1CCN(C2c3ccc(Cl)cc3CCc3cccnc32)CC1 (stereo not given)
8,≥ 7.1,CC(=O)N1[C@H](C)CN(C2c3ccc(Cl)cc3CCc3cccnc32)C[C@@H]1C (stereo not given in full)
9,≥ 3.8,CCOC(=O)N1CCN(C2c3ccc(Cl)cc3CCc3cccnc32)CC1 (stereo not given)
10,2.5,CCC(=O)N1CCN(C2c3ccc(Cl)cc3CCc3cccnc32)CC1 (stereo not given)
11,5.4,CC(=O)N1CCN(C2c3ccc(Cl)cc3CCc3cccnc32)CC1 (stereo not given)
12,3.6,O=C1CCC2CN(C3c4ccc(Cl)cc4CCc4cccnc43)CCN12 (stereo not given)
13,3.7,CC(=O)N1CCN(C2c3ccccc3CCc3ccccc32)CC1
14,0.049,CN1CCN(C2c3ccc(Cl)cc3CCc3cccnc32)CC1=O (stereo not given)
15,≥ 5,CC(=O)N1CCN(C2c3ccc(Cl)cc3CCc3cccnc32)C[C@@H]1C (stereo not given in full)
16,0.14,O=C1CN(C2c3ccc(Cl)cc3CCc3cccnc32)CCN1 (stereo not given)

# Organism: Homo sapiens
# Experiment: tissue or blood
# Assay type: functional, organism-based
# Settings: Plasma
row,IC50 [µM],Compound
1,15,CCCC(=O)N1CCN(C2c3ccc(Cl)cc3CCc3cccnc32)CC1 (stereo not given)
2,2.4,CCC(=O)N1CCC(=C2c3ccc(Cl)cc3CCc3cccnc32)CC1
3,0.66,CC(=O)N1CCN(C2c3ccc(Cl)cc3C=Cc3cccnc32)CC1 (stereo not given)
4,≥ 23,Clc1ccc2c(c1)CCc1cccnc1C2N1CCNCC1 (stereo not given)
5,13,CC(=O)N1CCCN(C2c3ccc(Cl)cc3CCc3cccnc32)CC1 (stereo not given)
6,28,CN1CCN(C2c3ccc(Cl)cc3CCc3cccnc32)CC1 (stereo not given)
7,1.3,CC(=O)N1CCN([C@@H]2c3ccc(Cl)cc3CCc3cccnc32)CC1
8,0.21,CC(=O)N1CCN([C@H]2c3ccc(Cl)cc3CCc3cccnc32)CC1
9,12,O=CN1CCN(C2c3ccc(Cl)cc3CCc3cccnc32)CC1 (stereo not given)
10,> 50,CC(=O)N1[C@H](C)CN(C2c3ccc(Cl)cc3CCc3cccnc32)C[C@@H]1C (stereo not given in full)
11,> 50,CCOC(=O)N1CCN(C2c3ccc(Cl)cc3CCc3cccnc32)CC1 (stereo not given)
12,14,O=CN1CCC(=C2c3ccc(Cl)cc3CCc3cccnc32)CC1
13,1.4,CCC(=O)N1CCN(C2c3ccc(Cl)cc3CCc3cccnc32)CC1 (stereo not given)
14,0.4,CC(=O)N1CCN(C2c3ccc(Cl)cc3CCc3cccnc32)CC1 (stereo not given)
15,1.8,O=C1CCC2CN(C3c4ccc(Cl)cc4CCc4cccnc43)CCN12 (stereo not given)
16,26,CC(=O)N1CCN(C2c3ccccc3CCc3ccccc32)CC1
17,33,CCCC(=O)N1CCC(=C2c3ccc(Cl)cc3CCc3cccnc32)CC1
18,0.42,CC(=O)N1CCC(=C2c3ccc(Cl)cc3C=Cc3cccnc32)CC1
19,> 50,CN1CCN(C2c3ccc(Cl)cc3CCc3cccnc32)CC1=O (stereo not given)
20,14,CC(=O)N1CCN(C2c3ccc(Cl)cc3CCc3cccnc32)C[C@@H]1C (stereo not given in full)
21,41,CC(=O)N1CCC(=C2c3ccccc3CCc3ccccc32)CC1
22,> 50,O=C1CN(C2c3ccc(Cl)cc3CCc3cccnc32)CCN1 (stereo not given)
23,≥ 50,CN1CCC(=C2c3ccc(Cl)cc3CCc3cccnc32)CC1
24,> 50,CN(C)CCC(c1ccc(Cl)cc1)c1ccccn1 (stereo not given) [CHLORPHENIRAMINE]
